Tests used:
Type in all cases: in vivo
[1] = system: muscle-specific ubiquitin E3 ligases (MuRF1 and MAFbx); assay: mRNA levels of MuRF1 and MAFbx in gastrocnemius muscle by real-time PCR; details: C57BL/6 mice, cisplatin-treated, Pae 10 and Pae 20 vs vehicle, FIG. 5
Protocol: (§1) In addition, cisplatin-treated mice orally administered the same volume of distilled water were designated as the vehicle group. After completion of drug treatment, the mice of each group were euthanized with 10 mg/kg alfaxalone (Jurox, Rutherford, Australia). Blood was collected in test tubes containing EDTA, and centrifuged, and plasma was separated therefrom. Gastrocnemius and quadriceps skeletal muscles were dissected and weighed. The skeletal muscles were rapidly frozen in liquid nitrogen to be used for RT-qPCR, Western blotting, and ELISA.
Total RNA was isolated from skeletal muscle using Qiazol (Qiagen, Germany), and then the mRNA levels of pro-inflammatory cytokines and muscle-specific ubiquitin E3 ligases (MuRF1 and MAFbx) were measured by real-time PCR.
In order to measure the mRNA and protein levels of major factors involved in muscle loss, muscle contraction, and muscle differentiation, the mRNA and protein levels in the skeletal muscle tissues from C57BL/6 mice were measured by real-time PCR and Western blotting.

[2] = system: C57BL/6 mice with cisplatin-induced cachexia; assay: Skeletal muscle function test in cisplatin-treated C57BL/6 mice; details: oral paeoniflorin 10 or 20 mg/kg
Protocol: (§2) The animal experiments were performed in accordance with internationally accepted principles for laboratory animal use and care, and the corresponding study protocol was reviewed and approved by the Institutional Animal Care and Use Committee (IACUC) at Chung-Ang University (approval #2021-00022). Four-week-old female C57BL/6 mice and Balb/c mice were purchased from Raonbio Inc. (Yongin, Korea) and were provided with standard laboratory diet and water ad libitum in the animal facility of Chung-Ang University. After a week of acclimation, the mice were intraperitoneally injected three times with 3 mg/kg/day cisplatin, suspended in 200 μL saline, every other day. Control group mice (sham-treated mice) were injected with the same volume of saline under the same regimen. The cisplatin-treated groups were orally administered paeoniflroin (Pae) or megestrol acetate (MA), suspended in 200 μL distilled water, every day until euthanasia.
Specifically, the cisplatin-treated groups were orally administered paeoniflorin (prepared in Example 1) at a dose of 5 (Pae 5 group), 10 (Pae 10 group), or 20 (Pae 20 group) mg/kg once daily for 9 days. […]
A skeletal muscle function test was conducted one day before euthanasia. Muscle strength of each mouse was measured by the grip strength of front paws, and endurance of each mouse was measured by treadmill running time until exhaustion. Motor coordination was measured by retention time on a rotating cylinder with a diameter of 3 cm (Castro and Kuang, 2017). The grip strength of each mouse was measured using a grip strength meter (Bio-GS3, Bioseb, Vitrolles, France). The treadmill running time of each mouse was measured on a treadmill (Exer-3/6, Columbus Instruments, […], USA). The ability of each mouse to stay on a rotating cylinder was measured using a rotarod apparatus (Panlab, Barcelona, Spain).

[3] = system: Balb/c mice with cisplatin-induced cachexia; assay: Body weight and muscle mass in cisplatin-treated Balb/c mice
Protocol: as §2
Specifically, the cisplatin-treated groups were orally administered paeoniflorin (prepared in Example 1) at a dose of 5 (Pae 5 group), 10 (Pae 10 group), or 20 (Pae 20 group) mg/kg once daily for 9 days. The comparative drug-treated group was orally administered megestrol acetate (MA), which is currently most commonly prescribed for cancer cachexia patients in clinical practice, at a dose of 160 mg/kg (=800 mg [daily human dose]/60 kg [average human body weight]×12 [dose equivalent factor based on human:mouse body surface area ratio], once daily for 9 days.
as §1

GDF-15 = assay: Plasma GDF-15 by ELISA in mice with cisplatin-induced cachexia; details: C57B/6 mice; cisplatin plus paeoniflorin-treated group vs cisplatin-treated group; FIG. 13B
Protocol: as §1
The levels of TNF-α and interleukin (IL)-6 were measured using respective mouse ELISA kits (Invitrogen, Waltham, MA, USA). IL-1β and GDF-15 levels were measured using respective Quantikine ELISA kits (R&D Systems, Minneapolis, MN, USA).
The protein concentration of GDF-15 in the plasma was analyzed by ELISA.

[4] = system: C57BL/6 mice with Lewis lung carcinoma-induced cachexia; assay: Body weight and muscle mass in C57BL/6 mice with Lewis lung carcinoma-induced cachexia
Protocol: (§3) As the experimental animals, 4-week-old female C57BL/6 mice and Balb/c mice weighing 18 g to 20 g were purchased from Raon Bio (Yongin, Korea), acclimatized in the laboratory animal facility for one week, and then used in the experiment. During the experiment period, the animals were provided with solid feed and water ad libitum, and the breeding room was maintained at a temperature of 20° C. to 24° C. and a relative humidity of 55% to 65% with a 12-hr light/12-hr dark cycle.
(§4) Mice were divided into a control group and a cachexia-induced group, and the cachexia-induced group was subdivided into a tumor cell-injected group, a tumor cell-injected and existing drug (MA, megestrol acetate)-administered group, and tumor cell-injected and paeoniflorin (Pae)-administered groups. Each group consisted of 10 animals.
Each mouse of the control group was injected subcutaneously with 100 μL of saline solution. For the cachexia-induced groups, Lewis lung carcinoma cells (C57BL/6 mice) or colon-26 carcinoma cells (Balb/c mice) were injected subcutaneously into the flank area of each mouse at a dose of 10^6 cells/100 μL/mouse. After 2 weeks, when a distinct tumor was formed, the tumor cell-injected group was orally administered distilled water, the tumor cell-injected and existing drug-administered group was orally administered megestrol acetate (MA), which is currently most commonly prescribed for cancer cachexia patients in clinical practice, at a dose of 160 mg/kg (=800 mg [daily human dose]/60 kg [average human body weight]×12 [dose equivalent factor based on human:mouse body surface area ratio], once daily for 9 days, and the tumor cell-injected and paeoniflorin-administered groups were orally administered paeoniflorin (prepared in Example 1) once daily for 9 days at doses of 5 (Pae 5 group), 10 (Pae 10 group) and 20 (Pae 20 group) mg/kg, respectively. After completion of 9 days of administration, the muscle strength of the mice was measured using a grip strength test device (Bioseb, USA), and the endurance of the mice was measured using a treadmill device (Columbus Instrument, USA).
(§5) After completion of the experiment, the mice were euthanized, blood was collected therefrom, the body weight excluding tumors, and the weights of the hind limb gastrocnemius muscle and quadriceps muscle were measured. GDF-15 in the serum was quantified by ELISA.

[5] = system: Balb/c mice with colon-26 carcinoma-induced cachexia; assay: Body weight and muscle mass in Balb/c mice with colon-26 carcinoma-induced cachexia; details: colon-26 carcinoma-injected, paeoniflorin orally once daily for 9 days vs colon-26 carcinoma-injected group
Protocol: as §3, §4
(§6) Each mouse of the control group was injected subcutaneously with 100 μL of saline solution. For the cachexia-induced groups, Lewis lung carcinoma cells (C57BL/6 mice) or colon-26 carcinoma cells (Balb/c mice) were injected subcutaneously into the flank area of each mouse at a dose of 10^6 cells/100 μL/mouse. […] After completion of 9 days of administration, the muscle strength of the mice was measured using a grip strength test device (Bioseb, USA), and the endurance of the mice was measured using a treadmill device (Columbus Instrument, USA).
as §5

[6] = system: Balb/c mice with colon-26 carcinoma-induced cachexia; assay: Muscle strength and endurance in Balb/c mice with colon-26 carcinoma-induced cachexia; details: colon-26 carcinoma-injected, paeoniflorin orally for 9 days
Protocol: as §3, §4, §6

C[C@@]12C[C@@]3(O)O[C@@H](O1)[C@]1(COC(=O)c4ccccc4)[C@H]3C[C@@]12O[C@@H]1O[C@H](CO)[C@@H](O)[C@H](O)[C@H]1O [paeoniflorin]
MAFbx mRNA level [1]: decreased | MuRF1 mRNA level [1]: decreased | grip strength (muscle strength) ([2]; FIG. 3A): significantly restored | treadmill running time (endurance) ([2]; FIG. 3B): significantly restored | rotarod retention time (motor coordination) ([2]; FIG. 3C): significantly restored | body weight ([3]; Pae 5, Pae 10, Pae 20 (mg/kg orally daily) vs negative control group, FIG. 2A): increased | weight of gastrocnemius muscle ([3]; Pae 5, Pae 10, Pae 20 vs negative control group, FIG. 2B): increased | weight of quadriceps muscle ([3]; Pae 5, Pae 10, Pae 20 vs negative control group, FIG. 2C): increased | plasma concentration of GDF-15 (GDF-15): significantly decreased | body weight ([4]; C57BL/6 mice, Lewis lung carcinoma-injected, paeoniflorin orally once daily for 9 days vs Lewis lung carcinoma-injected group, FIG. 14A): significantly increased | weight of gastrocnemius muscle ([4]; C57BL/6 mice, Lewis lung carcinoma-injected, paeoniflorin orally once daily for 9 days vs Lewis lung carcinoma-injected group, FIG. 14B): significantly increased | weight of quadriceps muscle ([4]; C57BL/6 mice, Lewis lung carcinoma-injected, paeoniflorin orally once daily for 9 days vs Lewis lung carcinoma-injected group, FIG. 14C): significantly increased | effect on body weight and muscle mass compared with megestrol acetate (MA) ([4]; Lewis lung carcinoma C57BL/6 mice, paeoniflorin 10 to 20 mg/kg/day vs megestrol acetate 160 mg/kg/day): better effect | body weight ([5]; FIG. 15A): significantly increased | weight of gastrocnemius muscle ([5]; FIG. 15B): significantly increased | weight of quadriceps muscle ([5]; FIG. 15C): significantly increased | muscle strength ([6]; FIG. 17A): significantly increased | endurance ([6]; FIG. 17B): significantly increased
